Reference: ChEMBL document CHEMBL5523706, “Structure-based drug design of DNA minor groove binders and evaluation of their antibacterial and anticancer properties” (Eur J Med Chem, 2024)
≈ marks a conversion by molar mass, not a printed value. Calls of active or inactive are those of the source. The calls are words filed in the database; no cut-off is given here.

Assays:
Serratia marcescens [1] = test: Bactericidal activity against Serratia marcescens ATCC 13880 assessed as reduction in bacterial viability at 100 uM incubated for 2 hrs in autoclaved distilled water followed by culturing on agar for overnight; format: functional
[2] = test system: Panel NCI-60 (60 carcinoma cell lines); test: Antitumor activity against human NCI-60 cells assessed as inhibition of cell growth at 10 uM incubated for 48 hrs by SRB assay; format: functional
[3] = Cytotoxicity against human HDF cells assessed as reduction in cell viability at 50 uM incubated for 24 hrs by MTT assay relative to control; format: toxicity, cell-based; settings: HDF cells (NHDF cell line), read-out: INH
[4] = Dissociation constant, pKa of the compound; format: physicochemical
NHDF = test: Cytotoxicity against human HDF cells assessed as reduction in cell viability at 50 uM incubated for 24 hrs by MTT assay; format: toxicity, cell-based
Escherichia coli [5] = test: Bactericidal activity against Escherichia coli K1 MTCC 710859 assessed as reduction in bacterial viability at 100 uM incubated for 2 hrs in autoclaved distilled water followed by culturing on agar for overnight; format: functional; settings: for inhibition at 100 µM: K1 MTCC 710859, 2 h
Salmonella enterica [6] = test: Bactericidal activity against Salmonella enterica ATCC 14028 assessed as reduction in bacterial viability at 100 uM incubated for 2 hrs in autoclaved distilled water followed by culturing on agar for overnight; format: functional; settings: ATCC 14028, 2 h
Streptococcus pyogenes [7] = test: Bactericidal activity against Streptococcus pyogenes ATCC 49399 assessed as reduction in bacterial viability at 100 uM incubated for 2 hrs in autoclaved distilled water followed by culturing on agar for overnight; format: functional; settings: for inhibition at 100 µM: ATCC 49399, 2 h
Streptococcus pneumoniae [8] = test: Bactericidal activity against Streptococcus pneumoniae ATCC 13883 assessed as reduction in bacterial viability at 100 uM incubated for 2 hrs in autoclaved distilled water followed by culturing on agar for overnight; format: functional; settings: for inhibition at 100 µM: ATCC 13883, 2 h
Bacillus cereus [9] = test: Bactericidal activity against Bacillus cereus MTCC 131621 assessed as reduction in bacterial viability at 100 uM incubated for 2 hrs in autoclaved distilled water followed by culturing on agar for overnight; format: functional; settings: MTCC 131621, 2 h
Escherichia coli [10] = test: Bactericidal activity against Escherichia coli K1 MTCC 710859 assessed as reduction in bacterial viability incubated for 2 hrs in autoclaved distilled water followed by culturing on agar for overnight; format: functional; settings: K1 MTCC 710859, 2 h
Salmonella enterica [11] = test: Bactericidal activity against Salmonella enterica ATCC 14028 assessed as reduction in bacterial viability incubated for 2 hrs in autoclaved distilled water followed by culturing on agar for overnight; format: functional; settings: ATCC 14028, 2 h
Serratia marcescens [12] = test: Bactericidal activity against Serratia marcescens ATCC 13880 assessed as reduction in bacterial viability incubated for 2 hrs in autoclaved distilled water followed by culturing on agar for overnight; format: functional; settings: ATCC 13880, 2 h
Streptococcus pyogenes [13] = test: Bactericidal activity against Streptococcus pyogenes ATCC 49399 assessed as reduction in bacterial viability incubated for 2 hrs in autoclaved distilled water followed by culturing on agar for overnight; format: functional; settings: ATCC 49399, 2 h
Streptococcus pneumoniae [14] = test: Bactericidal activity against Streptococcus pneumoniae ATCC 13883 assessed as reduction in bacterial viability incubated for 2 hrs in autoclaved distilled water followed by culturing on agar for overnight; format: functional; settings: ATCC 13883, 2 h
Bacillus cereus [15] = test: Antibacterial activity against Bacillus cereus assessed as reduction in bacteria-mediated cytopathogenicity pretreated with bacteria followed by incubation with human cells; format: functional
Salmonella enterica [16] = test: Antibacterial activity against Salmonella enterica assessed as reduction in bacteria-mediated cytopathogenicity pretreated with bacteria followed by incubation with human cells; format: functional
DNA [17] = test: Binding affinity to minor groove of d(5'-GCGACTAGTCGC3')2 duplex DNA (unknown origin) assessed as change in melting temperature at 2 equiv. in presence of 8 uM DNA measured at 30 to 100 degC by UV spectrophotometric analysis; format: nucleic-acid assay
Bacillus cereus [18] = test: Bactericidal activity against Bacillus cereus MTCC 131621 assessed as reduction in bacterial viability incubated for 2 hrs in autoclaved distilled water followed by culturing on agar for overnight; format: functional; settings: MTCC 131621, 2 h
DNA [19] = test: Binding affinity to d(5'-GCGACTAGTCGC-3')2 duplex DNA (unknown origin) at 10 uM measured at 298K by isothermal titration calorimetry; format: nucleic-acid assay
DNA [20] = test: Binding affinity to d(5'-GCGACTAGTCGC-3')2 duplex DNA (unknown origin) assessed as change in enthalpy at 10 uM measured at 298K by isothermal titration calorimetry; format: nucleic-acid assay
DNA [21] = test: Binding affinity to d(5'-GCGACTAGTCGC-3')2 duplex DNA (unknown origin) assessed as change in entropy at 10 uM measured at 298K by isothermal titration calorimetry; format: nucleic-acid assay
DNA [22] = test: Binding affinity to d(5'-GCGACTAGTCGC-3')2 duplex DNA (unknown origin) assessed as change in free energy at 10 uM measured at 298K by isothermal titration calorimetry; format: nucleic-acid assay
DNA [23] = test: Binding affinity to d(5'-GCGACTAGTCGC-3')2 duplex DNA (unknown origin) at DNA to ligand stoichiometric ratio of 0.5:1 measured at 298K by isothermal titration calorimetry; format: nucleic-acid assay

| Structure (SMILES) | pKa [4] | ΔTm (DNA [17]) [°C] | Activity (Serratia marcescens [1]) | inhibition at 10 µM [2] [%] | cytotoxicity at 24 h, 50 µM [3] [%] | Activity (NHDF) | inhibition at 100 µM (Bacillus cereus [9]) [%] | inhibition (INH) (Bacillus cereus [15]) [%] | inhibition (INH) (Salmonella enterica [16]) [%] | further results |
| --- | --- | --- | --- | --- | --- | --- | --- | --- | --- | --- |
| CN(C)CCCNC(=O)c1cc(NC(=O)c2cc(NC(=O)c3cc(NC(=O)c4nccn4C)cn3C)cn2C)cn1C | 9.3 | – | – | -3.79 | – | Toxic | – | – | – | – |
| CC(C)c1sc(NC(=O)c2cc(NC(=O)c3cc(NC(=O)c4nccn4C)cn3C)cn2C)nc1C(=O)NCCCN(C)C | 9.3 | 18 | inactive | 24.1 | 20 | – | 63 | 90 | 77 | Activity (Escherichia coli [5]): inactive; inhibition at 100 µM (Salmonella enterica [6]): 60%; Activity (Streptococcus pyogenes [7]): inactive; inhibition at 100 µM (Streptococcus pneumoniae [8]): 60%; MIC50 (Salmonella enterica [11]): 64 µM (≈ 39.9 µg/mL); MIC90 (Salmonella enterica [11]): 101 µM (≈ 62.8 µg/mL); MIC90 (Streptococcus pneumoniae [14]): 67 µM (≈ 41.7 µg/mL); MIC50 (Bacillus cereus [18]): 28 µM (≈ 17.4 µg/mL); MIC90 (Bacillus cereus [18]): 33.7 µM (≈ 21 µg/mL); K (DNA [19]): 1.42 10^6/M; deltaH (DNA [20]): -20.6 kcal/mol; TdeltaS (DNA [21]): -12.2 kcal/mol; deltaG (DNA [22]): -8.41 kcal/mol; Activity (DNA [23]): Active |
| Cc1ccc(CSCCC(=O)Nc2cc(C(=O)Nc3cc(C(=O)NCCCN(C)C)n(C)c3)n(C)c2)cc1 | 9.3 | – | – | 2.57 | 20 | – | – | – | – | – |
| Cc1ccc(CSCCC(=O)Nc2cc(C(=O)Nc3cc(C(=O)NCCCN4CCOCC4)n(C)c3)n(C)c2)cc1 | 7.01 | – | – | 2.57 | – | Non-Toxic | – | – | – | – |
| CC(C)c1sc(NC(=O)c2cc(NC(=O)c3cc(NC(=O)c4cscn4)cn3C)cn2C)nc1C(=O)NCCCN(C)C | 9.3 | 20 | inactive | 92.4 | 20 | – | 42 | 40 | 41 | Activity (Escherichia coli [5]): inactive; Activity (Streptococcus pyogenes [7]): inactive; Activity (Streptococcus pneumoniae [8]): inactive; MIC50 (Salmonella enterica [11]): 52 µM (≈ 32.5 µg/mL); MIC90 (Salmonella enterica [11]): 134 µM (≈ 83.9 µg/mL); K (DNA [19]): 2 10^6/M; deltaH (DNA [20]): -19 kcal/mol; TdeltaS (DNA [21]): -10.5 kcal/mol; deltaG (DNA [22]): -8.46 kcal/mol; Activity (DNA [23]): Active |
| CN(C)CCCNC(=O)c1cc(NC(=O)c2cc(NC(=O)c3ccc(C#Cc4ccccc4)cc3)cn2C)cn1C | 9.3 | – | – | 126 | – | – | 59 | – | – | – |
| CN(C)CCCNC(=O)c1cc(NC(=O)c2cc(NC(=O)c3cc(NC(=O)c4cscn4)cn3C)cn2C)cn1C | 9.3 | – | – | – | 20 | – | – | – | – | – |

Second part, led by results:

| pKa [4] | ΔTm (DNA [17]) [°C] | Structure (SMILES) | Activity (Serratia marcescens [1]) | inhibition at 10 µM [2] [%] | cytotoxicity at 24 h, 50 µM [3] [%] | Activity (NHDF) | inhibition at 100 µM (Bacillus cereus [9]) [%] | inhibition (INH) (Bacillus cereus [15]) [%] | inhibition (INH) (Salmonella enterica [16]) [%] | further results |
| --- | --- | --- | --- | --- | --- | --- | --- | --- | --- | --- |
| 7.01 | – | Cn1cc(NC(=O)c2cc(NC(=O)CCSc3ccc4ccccc4c3)cn2C)cc1C(=O)NCCCN1CCOCC1 | inactive | 7.46 | 20 | – | – | – | – | – |
| 7.01 | 22 | Cn1cc(NC(=O)c2cc(NC(=O)c3ccc(C#Cc4ccccc4)cc3)cn2C)cc1C(=O)NCCCN1CCOCC1 | – | 97.7 | 20 | – | 98 | 74 | 30 | inhibition at 100 µM (Escherichia coli [5]): 40%; inhibition at 100 µM (Salmonella enterica [6]): 90%; inhibition at 100 µM (Serratia marcescens [1]; ATCC 13880, 2 h): 80%; inhibition at 100 µM (Streptococcus pyogenes [7]): 83%; inhibition at 100 µM (Streptococcus pneumoniae [8]): 97%; MIC90 (Escherichia coli [10]): 106 µM (≈ 62.8 µg/mL); MIC50 (Salmonella enterica [11]): 58 µM (≈ 34.4 µg/mL); MIC90 (Salmonella enterica [11]): 117 µM (≈ 69.1 µg/mL); MIC90 (Serratia marcescens [12]): 88 µM (≈ 52.2 µg/mL); MIC90 (Streptococcus pyogenes [13]): 51 µM (≈ 30.2 µg/mL); MIC90 (Streptococcus pneumoniae [14]): 53 µM (≈ 31.4 µg/mL) |
| 9.3 | – | CN(C)CCCNC(=O)c1cc(NC(=O)c2cc(NC(=O)c3ccc(/C=C/c4ccccc4)cc3)cn2C)cn1C | – | 64.1 | – | Toxic | – | – | – | – |
| 7.01 | 21 | Cn1cc(NC(=O)c2cc(NC(=O)c3ccc(/C=C/c4ccccc4)cc3)cn2C)cc1C(=O)NCCCN1CCOCC1 | inactive | 94.1 | – | Non-Toxic | 87 | 70 | 44 | inhibition at 100 µM (Escherichia coli [5]): 50%; inhibition at 100 µM (Salmonella enterica [6]): 95%; inhibition at 100 µM (Streptococcus pyogenes [7]): 67%; inhibition at 100 µM (Streptococcus pneumoniae [8]): 100%; MIC90 (Escherichia coli [10]): 76 µM (≈ 45.2 µg/mL); MIC90 (Streptococcus pyogenes [13]): 55 µM (≈ 32.7 µg/mL); MIC90 (Streptococcus pneumoniae [14]): 47 µM (≈ 28 µg/mL); MIC50 (Bacillus cereus [18]): 37 µM (≈ 22 µg/mL); MIC90 (Bacillus cereus [18]): 34.3 µM (≈ 20.4 µg/mL) |
